We go through two compounds from patent US20160209435A1, “Acetaminophen as a Marker of Hepatic Disorders” (THE ARIZONA BOARD OF REGENTS, on behalf of THE UNIVERSITY …, priority 2008, published 2016).

Read-outs that look alike come from different tables or passages of the source.

The conditions of series [1]: MCD rats, APAP 1 mmol/kg; cited from earlier work.
A short description of series [2]: APAP-GLUC concentration in plasma of pediatric patients after APAP administration (HPLC). In kind it is in vivo, human. To be noted: for concentration at 1 h / concentration at 2 h / concentration at 4 h / concentration at 3 h: human, plasma; for concentration at 1 h: 1 h after APAP; for concentration at 2 h: 2 h after APAP; for concentration at 4 h: 4 h after APAP; for concentration at 3 h: 3 h after APAP. The procedure:
(§1) A study was conducted in pediatric patients whose disease status had been biopsy verified. Twenty-four pediatric patients (12-18 yrs) were desirable for the preliminary study due to the presumed lack of confounding factors (e.g., alcoholic consumption, illicit drug use) and the increasing prevalence of childhood obesity. Conversely, pediatric patients are limited in the amount of real liver damage that can take place simply due to age, where pediatric patients are incapable of developing ballooning degeneration and are limited to fat deposition, inflammation, and fibrosis.
High Performance Liquid Chromatography Analysis. APAP and its metabolites in plasma, and urine samples were quantified by high performance liquid chromatography analysis based on previously described methods (Howie et al., 1977a; Chen et al., 2000; Slitt et al., 2003d). APAP and its metabolites were resolved using a Zorbmax™ SB-C18 reverse-phase 4.6-mm×25-cm column with a Phenomenex™ Security Guard Column Guard and eluted using a mobile phase composed of 12.5% HPLC-grade methanol, 1% acetic acid, and 86.5% water, run isocratically at a flow rate of 1.2 mL/minute. The elution of metabolites was monitored at a wavelength of 254 nm. Retention times of APAP and its metabolites were determined by comparison with that of authentic standards. […] Samples were analyzed using a Beckman System Gold HPLC system (Beckman Coulter, Inc., Fullerton, Calif.) equipped with a 128-nm solvent module and a 166-nm detector. Quantitation was based on integrated peak areas. The concentrations of APAP and its metabolites were calculated using an APAP standard curve since the molar extinction coefficients of APAP and its conjugated metabolites are approximately the same (Howie et al., 1977b). To precipitate proteins in plasma, and urine, samples were diluted 1:2, 1:2, and 1:3, respectively, with ice-cold methanol and centrifuged at 4,000×g for 30 minutes at 4° C. The resulting supernatants were collected and diluted in mobile phase 1:3 (urine) or 1:2 (plasma) prior to HPLC analysis.
Liver fibrosis was histologically characterized as mild (minimal scarring around blood vessels), moderate (scarring extending out from the liver blood vessels), or severe (scarring forming bridges between blood vessels).
Liver inflammation was histologically characterized as mild (less than 2 foci of inflammation), moderate (2-4 foci of inflammation), or severe (more than 4 foci of inflammation).

Series [3] can be described thus: APAP-GLUC concentration in urine after APAP administration (HPLC). In kind it is in vivo, human. As to conditions: normal volunteers, steatosis, steatohepatitis. The procedure:
as §1
High Performance Liquid Chromatography Analysis. APAP and its metabolites in plasma, and urine samples were quantified by high performance liquid chromatography analysis based on previously described methods (Howie et al., 1977a; Chen et al., 2000; Slitt et al., 2003d). […] The elution of metabolites was monitored at a wavelength of 254 nm. Retention times of APAP and its metabolites were determined by comparison with that of authentic standards. […] Samples were analyzed using a Beckman System Gold HPLC system (Beckman Coulter, Inc., Fullerton, Calif.) equipped with a 128-nm solvent module and a 166-nm detector. Quantitation was based on integrated peak areas. […]

The conditions of series [4]: cited from earlier work.
[5] abbreviates: NASH, read-out: Mean plasma concentration.
Setting [6] is: NASH, read-out: Median plasma concentration.
Setting [7] is: Normal, read-out: Mean plasma concentration.
Setting [8] is: Normal, read-out: Median plasma concentration.
[9] abbreviates: Steatosis, read-out: Mean plasma concentration.
[10] abbreviates: Steatosis, read-out: Median plasma concentration.

In the case of `CC(=O)Nc1ccc(O[C@@H]2O[C@H](C(=O)O)[C@@H](O)[C@H](O)[C@H]2O)cc1` [APAP-GLUC, acetaminophen (APAP)-glucuronide], the “route of excretion relative to control” value in series [1] is reported as “shift from biliary to plasma excretion”. For the same compound, the “Plasma concentration, steatohepatitis versus simple steatosis” value in series [2] (all time points measured) is “significantly higher”. For the same compound, the concentration at 1 h in series [2] (setting [5]) was found to be 60.7 µM; in series [2] (setting [6]), 75.9 µM; in series [2] (setting [7]) it was 29.9 µM; in series [2] (setting [8]), 29 µM; in series [2] (setting [9]), 30.5 µM; in series [2] (setting [10]), 32.6 µM. The concentration at 2 h in series [2] (setting [5]) turned out to be 72.7 µM; in series [2] (setting [6]), 66.4 µM; in series [2] (setting [7]), 54.3 µM; in series [2] (setting [8]), 48.9 µM; in series [2] (setting [9]), 44.3 µM; in series [2] (setting [10]), 41.1 µM. Further, the concentration at 4 h in series [2] (setting [5]) is 68.3 µM; in series [2] (setting [6]), 62.6 µM; in series [2] (setting [9]), 35.5 µM; in series [2] (setting [10]), 35.3 µM. Moreover, the figures for the concentration at 3 h in series [2] (setting [7]) and in series [2] (setting [8]) were 46.7 µM and 39.2 µM, respectively. Besides, the “Plasma levels, hepatic fibrosis versus no hepatic fibrosis” value in series [2] (pediatric patients) is recorded as “Higher”. In series [2] (pediatric patients), the “Plasma levels, hepatic inflammation versus no hepatic inflammation” value is on record as “Higher”. Further, the “Urine levels, NASH versus other groups” value in series [3] was “not significantly different between patients with NASH and other groups until four hours”.

On to `CC(=O)Nc1ccc(O)cc1` [Acetaminophen], for which the plasma half-life in series [4] (first-order elimination) is 2.0 to 2.4 h. In series [4] (in vivo), the “fraction of administered dose conjugated with glucuronic acid” value was “At least one-half” and the “fraction of administered dose conjugated with sulfate” value is on record as “one-third”. Further, in series [4] (primarily via CYP2E1), the “fraction metabolized by CYP-450-dependent mixed-function oxidase pathway” value is on record as 5-9%. The “dose excreted unchanged by the kidneys” value in series [4] (recommended dose) is “Less than 5%”.
